Assay results reported in ChEMBL document CHEMBL5715954, “Silencing c-Myc translation as a therapeutic strategy through targeting PI3Kδ and CK1ε in hematological malignancies” (Blood, 2017).

Experiments:
Parameters in all cases: scale not given: the % may be the effect or the level left
[1] = target: T1, Casein kinase I isoform alpha-like (Homo sapiens) (UniProt Q8N752); assay: Inhibition of human CK1a1L assessed as enzyme activity at 1 uM using KRRRAL[pS]VASLPGL as substrate preincubated for 20 mins followed by [gamma-33P]-ATP addition and measured after 120 mins by radiometric Hot-SpotSM Kinase assay relative to control
T1 sequence (whole entry): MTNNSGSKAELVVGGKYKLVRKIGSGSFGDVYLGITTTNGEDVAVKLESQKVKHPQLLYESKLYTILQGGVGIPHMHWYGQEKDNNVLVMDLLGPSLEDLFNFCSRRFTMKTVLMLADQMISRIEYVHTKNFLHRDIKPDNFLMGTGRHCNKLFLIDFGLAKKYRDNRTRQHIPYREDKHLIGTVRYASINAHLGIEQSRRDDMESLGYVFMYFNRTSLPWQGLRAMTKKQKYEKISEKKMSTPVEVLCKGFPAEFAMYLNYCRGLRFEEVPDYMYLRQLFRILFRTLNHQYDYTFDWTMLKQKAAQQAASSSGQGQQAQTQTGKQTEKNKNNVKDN

[2] = target: T2, Serine/threonine-protein kinase Nek2 (Homo sapiens) (UniProt P51955); assay: Inhibition of human NEK2 assessed as enzyme activity at 1 uM using myelin basic protein as substrate preincubated for 20 mins followed by [gamma-33P]-ATP addition and measured after 120 mins by radiometric Hot-SpotSM Kinase assay relative to control
T2 sequence (whole entry): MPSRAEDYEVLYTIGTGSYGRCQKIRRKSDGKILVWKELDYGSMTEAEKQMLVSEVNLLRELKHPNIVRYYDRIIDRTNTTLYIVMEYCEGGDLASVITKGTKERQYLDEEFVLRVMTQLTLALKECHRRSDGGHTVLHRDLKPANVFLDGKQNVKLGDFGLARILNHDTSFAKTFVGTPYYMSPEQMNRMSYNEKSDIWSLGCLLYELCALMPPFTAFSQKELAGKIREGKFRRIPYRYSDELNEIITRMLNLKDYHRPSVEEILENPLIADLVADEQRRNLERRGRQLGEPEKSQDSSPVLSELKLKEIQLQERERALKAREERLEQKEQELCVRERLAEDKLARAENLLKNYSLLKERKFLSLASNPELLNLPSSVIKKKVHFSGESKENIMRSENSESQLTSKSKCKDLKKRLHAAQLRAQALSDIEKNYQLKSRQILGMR

[3] = target: Tyrosine-protein kinase Fgr (Homo sapiens) (UniProt P09769); assay: Inhibition of human FGR assessed as enzyme activity at 1 uM using poly[Glu:Tyr] (4:1) as substrate preincubated for 20 mins followed by [gamma-33P]-ATP addition and measured after 120 mins by radiometric Hot-SpotSM Kinase assay relative to control
Sequence of Tyrosine-protein kinase Fgr (Homo sapiens) (P09769 2-529 limits assumed): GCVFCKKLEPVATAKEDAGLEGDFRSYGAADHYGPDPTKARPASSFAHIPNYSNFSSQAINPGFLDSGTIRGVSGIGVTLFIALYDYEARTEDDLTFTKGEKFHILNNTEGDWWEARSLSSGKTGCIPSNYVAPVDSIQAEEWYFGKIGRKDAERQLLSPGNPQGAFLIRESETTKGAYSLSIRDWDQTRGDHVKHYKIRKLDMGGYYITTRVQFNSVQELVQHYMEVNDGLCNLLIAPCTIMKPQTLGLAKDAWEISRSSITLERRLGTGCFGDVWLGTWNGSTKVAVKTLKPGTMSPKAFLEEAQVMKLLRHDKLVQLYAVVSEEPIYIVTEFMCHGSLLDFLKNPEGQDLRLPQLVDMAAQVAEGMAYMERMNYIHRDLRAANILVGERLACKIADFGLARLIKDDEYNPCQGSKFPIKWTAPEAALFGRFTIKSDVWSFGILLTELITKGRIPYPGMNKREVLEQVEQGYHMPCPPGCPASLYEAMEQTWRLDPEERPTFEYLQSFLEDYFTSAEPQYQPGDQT

[4] = target: RAC-gamma serine/threonine-protein kinase (Homo sapiens) (UniProt Q9Y243); assay: Inhibition of human AKT3 assessed as enzyme activity at 1 uM using KGSGSGRPRTSSFAEG as substrate preincubated for 20 mins followed by [gamma-33P]-ATP addition and measured after 120 mins by radiometric Hot-SpotSM Kinase assay relative to control
Sequence of RAC-gamma serine/threonine-protein kinase (Homo sapiens) (Q9Y243 whole entry): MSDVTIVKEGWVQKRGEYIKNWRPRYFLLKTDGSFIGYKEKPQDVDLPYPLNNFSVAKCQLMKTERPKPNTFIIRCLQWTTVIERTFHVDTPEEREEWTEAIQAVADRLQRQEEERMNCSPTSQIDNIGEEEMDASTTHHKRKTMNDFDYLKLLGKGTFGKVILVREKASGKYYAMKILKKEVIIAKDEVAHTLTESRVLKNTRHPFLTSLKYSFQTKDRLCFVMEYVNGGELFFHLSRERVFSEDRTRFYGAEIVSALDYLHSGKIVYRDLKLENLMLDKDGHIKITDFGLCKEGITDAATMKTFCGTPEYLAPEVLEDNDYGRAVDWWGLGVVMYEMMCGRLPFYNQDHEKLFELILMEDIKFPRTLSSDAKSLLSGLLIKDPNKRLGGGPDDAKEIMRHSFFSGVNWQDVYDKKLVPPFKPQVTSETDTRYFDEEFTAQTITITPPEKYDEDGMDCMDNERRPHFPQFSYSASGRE

[5] = target: Tyrosine-protein kinase HCK (Homo sapiens) (UniProt P08631); assay: Inhibition of human HCK assessed as enzyme activity at 1 uM using KVEKIGEGTYGVVYK as substrate preincubated for 20 mins followed by [gamma-33P]-ATP addition and measured after 120 mins by radiometric Hot-SpotSM Kinase assay relative to control
Sequence of Tyrosine-protein kinase HCK (Homo sapiens) (P08631 2-526 limits assumed): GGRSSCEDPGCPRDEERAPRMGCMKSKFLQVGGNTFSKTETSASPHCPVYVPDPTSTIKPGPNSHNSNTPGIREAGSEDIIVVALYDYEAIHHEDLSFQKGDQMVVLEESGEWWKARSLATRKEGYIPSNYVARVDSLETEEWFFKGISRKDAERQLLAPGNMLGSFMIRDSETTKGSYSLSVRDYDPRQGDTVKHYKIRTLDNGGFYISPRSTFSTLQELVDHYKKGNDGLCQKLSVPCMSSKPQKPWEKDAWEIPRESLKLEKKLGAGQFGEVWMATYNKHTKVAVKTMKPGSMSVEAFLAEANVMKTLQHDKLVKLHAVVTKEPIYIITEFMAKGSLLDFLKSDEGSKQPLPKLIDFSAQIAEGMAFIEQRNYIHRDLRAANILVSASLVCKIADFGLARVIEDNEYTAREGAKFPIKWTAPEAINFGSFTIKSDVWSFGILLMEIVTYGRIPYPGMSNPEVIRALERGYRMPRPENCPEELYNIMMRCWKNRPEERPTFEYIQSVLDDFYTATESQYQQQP

[6] = target: Calcium/calmodulin-dependent protein kinase type II subunit delta (Homo sapiens) (UniProt Q13557); assay: Inhibition of human CAMK2d assessed as enzyme activity at 1 uM using KKLNRTLSFAEPG as substrate preincubated for 20 mins followed by [gamma-33P]-ATP addition and measured after 120 mins by radiometric Hot-SpotSM Kinase assay relative to control
Sequence of Calcium/calmodulin-dependent protein kinase type II subunit delta (Homo sapiens) (Q13557 whole entry): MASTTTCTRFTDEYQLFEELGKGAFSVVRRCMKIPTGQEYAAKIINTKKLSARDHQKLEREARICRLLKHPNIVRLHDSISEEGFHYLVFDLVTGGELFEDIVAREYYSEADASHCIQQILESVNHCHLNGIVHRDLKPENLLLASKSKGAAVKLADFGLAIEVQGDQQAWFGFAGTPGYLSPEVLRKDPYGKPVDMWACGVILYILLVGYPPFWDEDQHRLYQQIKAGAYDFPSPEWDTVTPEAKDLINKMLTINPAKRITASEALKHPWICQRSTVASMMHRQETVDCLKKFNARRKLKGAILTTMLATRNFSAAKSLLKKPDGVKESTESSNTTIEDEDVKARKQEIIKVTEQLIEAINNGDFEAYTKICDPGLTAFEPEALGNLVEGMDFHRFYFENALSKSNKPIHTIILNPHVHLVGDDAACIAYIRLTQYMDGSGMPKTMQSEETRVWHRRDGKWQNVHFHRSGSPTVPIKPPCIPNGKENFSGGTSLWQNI

[7] = target: T3, Myosin light chain kinase (Homo sapiens) (UniProt Q32MK0); assay: Inhibition of human MYLK3 assessed as enzyme activity at 1 uM using KKRPQRRYSNVF as substrate preincubated for 20 mins followed by [gamma-33P]-ATP addition and measured after 120 mins by radiometric Hot-SpotSM Kinase assay relative to control
T3 sequence (whole entry): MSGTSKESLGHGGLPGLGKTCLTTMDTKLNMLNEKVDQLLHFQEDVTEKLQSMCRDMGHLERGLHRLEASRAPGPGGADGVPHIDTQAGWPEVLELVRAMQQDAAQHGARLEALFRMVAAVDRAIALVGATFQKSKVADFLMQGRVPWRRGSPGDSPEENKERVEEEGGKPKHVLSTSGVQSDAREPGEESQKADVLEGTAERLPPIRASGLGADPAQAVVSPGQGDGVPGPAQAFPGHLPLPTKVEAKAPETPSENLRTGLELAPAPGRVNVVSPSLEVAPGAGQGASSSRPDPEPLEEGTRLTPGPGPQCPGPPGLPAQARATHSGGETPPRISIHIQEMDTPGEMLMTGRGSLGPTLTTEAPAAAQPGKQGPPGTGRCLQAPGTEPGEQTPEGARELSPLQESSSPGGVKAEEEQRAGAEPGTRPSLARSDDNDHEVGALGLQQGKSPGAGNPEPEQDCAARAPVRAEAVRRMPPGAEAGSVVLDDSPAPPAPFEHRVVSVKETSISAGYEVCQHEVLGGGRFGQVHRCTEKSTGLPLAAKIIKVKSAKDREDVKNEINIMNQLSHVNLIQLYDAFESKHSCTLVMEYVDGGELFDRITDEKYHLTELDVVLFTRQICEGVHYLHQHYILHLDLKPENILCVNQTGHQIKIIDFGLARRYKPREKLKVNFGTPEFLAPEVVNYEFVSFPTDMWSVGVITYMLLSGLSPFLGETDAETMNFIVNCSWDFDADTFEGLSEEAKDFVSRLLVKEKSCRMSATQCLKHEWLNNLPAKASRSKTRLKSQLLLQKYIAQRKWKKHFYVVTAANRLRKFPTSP

[8] = target: Activated CDC42 kinase 1 (Homo sapiens) (UniProt Q07912); assay: Inhibition of human ACK1 assessed as enzyme activity at 1 uM using EAIYAAPFAKKK as substrate preincubated for 20 mins followed by [gamma-33P]-ATP addition and measured after 120 mins by radiometric Hot-SpotSM Kinase assay relative to control
Sequence of Activated CDC42 kinase 1 (Homo sapiens) (Q07912 whole entry, looked up): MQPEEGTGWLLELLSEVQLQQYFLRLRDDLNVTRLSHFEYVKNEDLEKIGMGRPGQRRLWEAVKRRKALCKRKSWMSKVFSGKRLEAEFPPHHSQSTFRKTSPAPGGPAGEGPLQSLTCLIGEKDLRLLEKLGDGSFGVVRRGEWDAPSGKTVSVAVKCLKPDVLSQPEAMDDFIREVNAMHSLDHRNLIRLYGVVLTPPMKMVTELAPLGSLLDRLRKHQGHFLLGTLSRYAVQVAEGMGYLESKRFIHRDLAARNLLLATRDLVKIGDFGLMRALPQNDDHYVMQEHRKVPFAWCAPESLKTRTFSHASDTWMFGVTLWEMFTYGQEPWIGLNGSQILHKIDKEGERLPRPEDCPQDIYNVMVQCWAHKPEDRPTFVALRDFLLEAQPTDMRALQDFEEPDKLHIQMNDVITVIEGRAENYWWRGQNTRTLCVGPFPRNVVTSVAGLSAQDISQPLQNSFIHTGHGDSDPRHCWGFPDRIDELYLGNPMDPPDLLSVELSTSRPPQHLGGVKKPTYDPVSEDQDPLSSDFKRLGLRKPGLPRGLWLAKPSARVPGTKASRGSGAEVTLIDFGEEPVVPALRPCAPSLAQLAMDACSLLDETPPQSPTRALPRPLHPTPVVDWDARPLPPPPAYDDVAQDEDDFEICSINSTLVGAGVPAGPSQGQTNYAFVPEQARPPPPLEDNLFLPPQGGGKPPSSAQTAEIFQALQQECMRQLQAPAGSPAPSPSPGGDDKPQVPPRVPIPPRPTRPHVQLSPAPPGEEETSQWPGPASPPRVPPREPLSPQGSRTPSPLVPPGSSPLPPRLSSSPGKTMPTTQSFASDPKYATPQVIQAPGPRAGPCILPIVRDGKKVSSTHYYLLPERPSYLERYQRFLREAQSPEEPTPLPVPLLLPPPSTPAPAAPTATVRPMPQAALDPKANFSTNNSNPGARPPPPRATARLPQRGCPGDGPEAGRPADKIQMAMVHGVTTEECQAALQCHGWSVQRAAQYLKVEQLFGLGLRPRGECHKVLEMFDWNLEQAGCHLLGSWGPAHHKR

Structure (SMILES) | Activity [1] | Activity [2] | Activity [3] | Activity [4] | Activity [5] | Activity [6] | Activity [7] | Activity [8]
CC[C@H](Nc1ncnc2[nH]cnc12)c1nc2cccc(F)c2c(=O)n1-c1ccccc1 | 101% | 98% | 98.8% | 102% | 93.9% | 107% | 91.8% | 90.7%
C[C@H](Nc1ncnc2nc[nH]c12)c1cc2cccc(Cl)c2c(=O)n1-c1ccccc1 | 99.5% | 110% | 103% | 99.8% | 98.7% | 104% | 98.2% | 95.5%
CC(C)Oc1ccc(-c2nn([C@@H](C)c3oc4ccc(F)cc4c(=O)c3-c3cccc(F)c3)c3ncnc(N)c23)cc1F [UMBRALISIB] | 103% | 101% | 99.6% | 100% | 91% | 103% | 105% | 93.6%
